Reference: patent US6586460B1, “Heteroarotinoids containing urea or thiourea linker” (The Board of Regents for Oklahoma State University, priority 2001, dated 2003)

Assays:
OVCAR-3 cells = assay: In vivo tumor xenograph; set-up: species or system athymic nu/nu mice; conditions: 10 mg/kg/day p.o.; for tumor growth (average tumor volume, FIG. 1): 5 days/week, beginning 35 days after implantation; for sizes of the tumors compared with control group treated with sesame oil alone: after 15 days of treatment, t-test P<0.05
Method: Thirty female athymic nu/nu mice (Charles Rivers Laboratories, Wilmington, Mass.) were housed in a laminar flow room under sterile conditions at 83-85° F. The mice were quarantined for one week prior to the beginning of the study and were allowed access to autoclaved food (Purina 5001 mouse/rat sterilized diet, St. Louis, Mo.) and water ad libitum. Then OVCAR-3 cells in log phase growth were harvested by trypsinization, resuspended in RPMI culture medium, and centrifuged at 3000 rpm for 10 min. The pellets were then resuspended in RPMI culture medium at a concentration of 7×10^6 cells/mL before implantation into mice. Animals were injected with 3.5×10^6 cells into right scapular region with a 24-gauge needle/1 mL tuberculin syringe (Becton Dickinson, Rutherford, N.J.). Twenty four hours after tumor implantation, animals were randomized into four treatment groups of 5 animals each. Retinoids were administered daily p.o. beginning 35 days after tumor implantation with a 20-gauge intragastric feeding tube (Popper & Sons, New Hyde Park, N.Y.), 5 days/week, at doses of 10 mg/kg/day in 0.1 mL of super refined sesame oil (Corda, Inc., Parisppany, N.J.). Tumors were measured with calipers weekly, and tumor volumes were calculated using the formula: volume=length×width×heigth. Animal weights and clinical signs of overall health status and cutaneous toxicities were recorded weekly. Agents 11 and 13 were evaluated against the 4-HPR standard. FIG. 1 illustrates the overall changes in tumor volumes found in the mice in these experiments. […] The animals were monitored daily for signs of toxicity, such as skin eczema and bone fractures, but none were observed. This is added evidence that these heteroarotinoids are strong candidates for cancer chemotherapy.

[1] = test system: ovarian carcinoma cell line OVCAR-3; assay: Apoptosis in organotypic culture, TUNNEL assay; format: cell-based, human; conditions: 1 μM; for % APOPTOSIS of OVCAR-3 cells: two weeks, organotypic culture, TUNNEL assay; for inducing apoptosis in the OVCAR-3 cell line, comparison in words: Table V
Method: In another experiment, the ovarian carcinoma cell line OVCAR-3 was grown in organotypic culture. After one week, the cultures were treated with 1 μM solution of heteroarotinoids 11, 12, and 13, or with the same volume of DMSO (solvent), for two weeks. Both 9-c-RA and 4-HPR were used as controls. At the end of the time, the cultures were fixed in sectioned, and stained with the TUNNEL assay to detect apoptosing cells. An experienced pathologist quantitated the percent of apoptosing cells by light microscopic examination.

[2] = test system: RARE reporter in the SW962 vulvar carcinoma cell line; assay: RARE reporter transactivation through endogenous receptors; format: cell-based
Method: Both heteroarotinoids 11 and 13 resemble 4-HPR in that all are potent inducers of apoptosis. Since 4-HPR acts through a receptor-independent mechanism, agent 11 was evaluated for ability to transactivate a RARE reporter through endogenous receptors in the SW962 vulvar carcinoma cell line. […] Nelson, S. Subramanian, G. M. Weerasekare, J. B. Gale, M. K. Patterson, Jr., B. Wang, W. Wang, S. Lu, T. C. Rowland, P. DiSivestro, C. Lindamood, D. L. Hill, and K. D. Berlin]. No induction of the retinoid receptors was observed although 9-cis-RA casued a 4 to 10 fold induction of RARE-driven transcription in the same experiment with the SW962 cell line.

retinoic acid receptors = assay: CV-1 co-transfection assay; format: cell-based
[3] = test system: SW962 vulvar carcinoma cultures; assay: Apoptosis assay, Annexin-V-Flous/propidium iodide flow cytometry; format: cell-based
Description: Optimal chemotherapeutic agents will selectively kill tumor cells by inducing a natural form of cell death which is called “apoptosis”. Toxic agents kill both normal and tumor cells via a nonspecific process known as “necrosis”. To differentiate between apoptosis and necrosis in heteroarotinoid-treated cultures, a flow cytometric assay was employed. Treated cultures were stained with Annexin-V-Flous and propidium iodide, and the intensities of the stains are quantitated with Flow Cytometry. The Annexin-V-Flous binds to phosphatidyl serine on the exterior of apoptosing cells. This assay is specific for apoptosing cells because phosphatidyl serine is normally located on the inner membrane of the cells, a situation whereby the serine derivative cannot be bound by Annexin. However, during apoptosis, phosphatidyl serine is translocated to the outer membrane. The Flous moiety emits a signal that can be detected and quantitated by Flow Cytometry. In contrast, propidium iodide is taken up by necrotic cells that have lost membrane integrity. In this study, t-RA was used as a control for the non-apoptotic retinoids, and 4-HPR was used as a control for the apoptotic retinoids.

SMILES	tumor growth (average tumor volume, FIG. 1) (OVCAR-3 cells)	sizes of the tumors compared with control group treated with sesame oil alone (OVCAR-3 cells)	% APOPTOSIS of OVCAR-3 cells [1] [%]	inducing apoptosis in the OVCAR-3 cell line, comparison in words [1]	induction of RARE-driven transcription [2]	transactivation of each of the retinoic acid receptors (retinoic acid receptors)	Percentage of induction of apoptosis in SW962 vulvar carcinoma cultures ([3]; Days 0) [%]	Percentage of induction of apoptosis in SW962 vulvar carcinoma cultures ([3]; Days 1) [%]	Percentage of induction of apoptosis in SW962 vulvar carcinoma cultures ([3]; Days 2) [%]	Percentage of induction of apoptosis in SW962 vulvar carcinoma cultures ([3]; Days 3) [%]	Percentage of induction of apoptosis in SW962 vulvar carcinoma cultures ([3]; Days 4) [%]	Percentage of induction of apoptosis in SW962 vulvar carcinoma cultures ([3]; Days 7) [%]	apoptosis in the SW962 vulvar cell, comparison in words ([3]; Table IV)
CCOC(=O)c1ccc(NC(=O)Nc2ccc3c(c2)C(C)(C)CC(C)(C)S3)cc1 [heteroarotinoid 13]	inhibited tumor growth	significantly smaller	80	as effective as 4-HPR	–	–	–	–	–	–	–	–	–
CC1(C)CC(C)(C)c2cc(NC(=S)Nc3ccc([N+](=O)[O-])cc3)ccc2S1 [heteroarotinoid 11]	inhibited tumor growth	significantly smaller	95	as effective as 4-HPR	No induction	No transactivation	3	6.11	11.42	39.06	48.79	47.5	superior to the clinically used agent 4-HPR
